Test results from patent EP0462621A2, “Use of particular compounds for manufacture of pharmaceutical formulations for treatment against various parasites, mycoplasmas, other indications and other infections” (Prendergast, Patrick Thomas, priority 1990, dated 1991).

Columns and labels:
L major/L mexicana = assay: Amastigote-promastigote (AM-PRO) transformation, in-vitro; format: cell-based; settings: Lm.
[1] = system: T.b. brucei, T.b. gambiense and T.b. rhodesiense; assay: African trypanosomiasis mouse model, in-vivo
Protocol: Primary screening for new trypanocides has made extensive use of rodent systems, in which host survival time is a simple indicator of drug activity. In-vitro screens have used a variety of trypomastigote types (see Table 3, below). […] Most early in-vitro screens employed a short test in which bloodstream trypomastigotes were isolated from an infected rodent and maintained for up to 24 h in a simple drug-containing media. Two significant modifications of this technique include maintaining isolated bloodstream trypomastigotes in drug-containing media for 3-4 hours at 37° C in micro-titre plates and their subsequent viability assessed by the uptake of radiolabelled precursors or motility and infectivity to mice.
In-vitro and in-vivo models were used to test activities of a selection of many compounds. Those activities are summarized in Tables 1-3, showing variation between systems and species. Activities measured in the MP mo and HM mo models have shown the best correlation with results obtained in hamster and mouse models.

[2] = system: Human peripheral blood mononuclear cells; assay: Experiment 1a(d): human cell viability, trypan blue counts; format: cell-based; settings: 18 hours; for Cells/ml (x10^5) / Viability (%): 37° C
Protocol: Human peripheral blood mononuclear cells were incubated for 18 hours in the presence of various concentrations of IPA and azidothymidine (AZT) at 37° C after which time cell viability was determined by visual counts of cells in the presence of trypan blue. Two controls were run, one with each series of experiments.

HIV-1 = assay: Experiment la(1): HIV-1 infected 81-66-45 cells; format: cell-based
RH strain T. gondii = assay: Growth of Toxoplasma gondii in human foreskin fibroblasts, tritiated uracil incorporation; format: cell-based; settings: various concentrations; Figure 24
Protocol: An experiment was conducted to evaluate the in-vitro effects of IPA on Toxoplasma Gondii by infecting human foreskin fibroblast monolayers (four replicates per condition) with RH strain T. gondii in the presence of various concentrations of IPA dissolved in Eagle's minimum essential medium without fetal bovine serum. After an initial four hour period of infection, the media and any T. gondii which had not entered the host cells were removed and replaced by media containing 1 u.M tritiated uracil per milliter, and incubated overnight. The mono-layers were lysed, nucleic acids precipitated by trichloroacetic acid, and the precipitates recovered on glass fiber filters. Radioactivity on the filters was measured in a Beckman scintillation spectrometer. Controls included fibroblast monolayers without T. gondii (cell control) and fibroblast monolayers infected by the same inoculum of T. gondii as the IPA treated monolayers (Tg control). The units of uracil incorporation are somewhat lower here because of the lower inoculum of T. gondii.

[3] = system: monocyte/macrophage cultures; assay: Appearance and differentiation of monocyte/macrophage cultures in Experiment la(a); format: cell-based
Protocol: Fresh macrophage cultures were obtained by incubation of mononuclear cells obtained from a leukopak directly in the wells of a microtiter plate having 6 wells per row. After removal of non-adherent cells, each row of the adherent macrophages was infected with 10-fold serial dilutions of HIV-I, with the use of polybrene to enhance uptake of the virus. After one to two hours, the virus inoculum was removed and replaced with fresh normal growth medium. The fresh medium for each row contained a particular concentration of AZT, dideoxy cytidine (ddC), or compound la, as indicated by the left-hand column of Table la(a). The first row of wells acted as a control, and to it was added fresh medium containing none of the three drugs. Medium levels were maintained for two to four weeks to allow replication of the virus to take place, with at least one complete fluid change to remove residual virus inoculum. The contents of each well were then tested for the level of HIV p24 antigen present using a commercially available antigen capture kit employing a radio-immunoassay which can detect as little as 10'^9gm of p24 present in a sample. The above procedure was done in duplicate runs.

In the case of CC(C)=CCNc1ncnc2c1ncn2[C@@H]1O[C@H](CO)[C@@H](O)[C@H]1O [IPA, N^6-(Δ^2-isopentenyl) adenosine], the “Activity, AM-PRO transform-ation” value (L major/L mexicana) is reported as “+ +”, the “activity, mouse model” value [1] is reported as “+ +” and the “Cells/ml (x10^5)” value ([2]; 0.1 µM) is reported as 2.4 Cells/ml (x10^5). For the same compound, the “Viability (%)” value ([2]; 0.1 µM) was 86%, the “Cells/ml (x10^5)” value ([2]; 0.3 µM) was 1.8 Cells/ml (x10^5) and the “Viability (%)” value ([2]; 0.3 µM) was 82%. For the same compound, the “Cells/ml (x10^5)” value ([2]; 1 µM) was 2.8 Cells/ml (x10^5), the “Viability (%)” value ([2]; 1 µM) was 100% and the “Cells/ml (x10^5)” value ([2]; 3 µM) was 2.6 Cells/ml (x10^5). For the same compound, the “Viability (%)” value ([2]; 3 µM) was 87%, the “Cells/ml (x10^5)” value ([2]; 10 µM) was 3.0 Cells/ml (x10^5) and the “Viability (%)” value ([2]; 10 µM) was 94%. The “Cells/ml (x10^5)” value ([2]; 30 µM) was 3.8 Cells/ml (x10^5), the “Viability (%)” value ([2]; 30 µM) was 95% and the “Cells/ml (x10^5)” value ([2]; 100 µM) was 3.8 Cells/ml (x10^5). For the same compound, the “Viability (%)” value ([2]; 100 µM) was 90%, the “Cells/ml (x10^5)” value ([2]; 300 µM) was 2.2 Cells/ml (x10^5) and the “Viability (%)” value ([2]; 300 µM) was 79%. For the same compound, the “Cells/ml (x10^5)” value ([2]; 1000 µM) was 2.8 Cells/ml (x10^5), the “Viability (%)” value ([2]; 1000 µM) was 82% and the “Cells/ml (x10^5)” value ([2]; 3000 µM) was 2.2 Cells/ml (x10^5). For the same compound, the “Viability (%)” value ([2]; 3000 µM) was 92%, the cell viability ([2]; 6mM) was “slight reduction” and the “Cells/ml (x10^5)” value ([2]; 6000 µM) was 2.4 Cells/ml (x10^5). The “Viability (%)” value ([2]; 6000 µM) was 75%, the “toxic effect (cell viability)” value ([2]; concentrations of from 0.1 µM to 3 u.M) was “no toxic effect” and the IC50 (HIV-1; Human immunodeficiency virus 1, from Figures 16 and 17, read-out: IC50 - The concentration of IPA which inhibits the replication of HIV-1 by 50%) was 6 µM. For the same compound, the IC90 (HIV-1; Human immunodeficiency virus 1, from Figures 16 and 17, read-out: IC90 - The concentration of IPA which inhibits the replication of HIV-1 by 90%) was 10 µM, the “effect on the growth of T. gondii” value (RH strain T. gondii) was “inhibitory effect” and the “appearance of monocyte/macrophage cultures” value ([3]; all concentrations of IPA used (3-1000 μM)) was “appeared to be healthy”. The “differentiation of small immature monocytes into large adherent macrophage cells” value ([3]; in the presence of IPA) was “did not take place”.
